The values that follow come from article PMC8124163 (2021).

Experiment [1] concerns 22AG (DNA, G4) AGGGTTAGGGTTAGGGTTAGGG
As to the kind of experiment: photometric titration. The conditions noted are these: K+ 110 mM; K-phosphate buffer, pH 7.0, 5% v/v DMSO; compound 20 µM.

The test system of experiment [2] is c-kit (DNA, G4) AGGGAGGGCGCTGGGAGGAGGG
Kind of experiment: photometric titration. The conditions noted are these: K+ 110 mM; K-phosphate buffer, pH 7.0, 5% v/v DMSO; compound 20 µM.

In experiment [3] the test system is a2 (DNA, G4) ACAGGGGTGTGGGGACAGGGGTGTGGGG
Kind of experiment: photometric titration. The conditions noted are these: K+ 110 mM; K-phosphate buffer, pH 7.0, 5% v/v DMSO; compound 20 µM.

The subject of experiment [4] is c-myc (DNA, G4) TGAGGGTGGGTAGGGTGGGTA
As to the kind of experiment: photometric titration. The conditions noted are these: K+ 110 mM; K-phosphate buffer, pH 7.0, 5% v/v DMSO; compound 20 µM.

In experiment [5] the test system is FmycT (DNA, G4) TGAGGGTGGGTAGGGTGGGTA
Kind of experiment: FRET melting (fluorescence). The conditions noted are these: K+ 10 mM, Na+ 10 mM, Li+ 90 mM; cacodylate, pH 7.0; ligand:DNA ratio 5; DNA 0.2 µM (Figure S6; Table 2 prints 0.2 mM); error ±0.5 °C.

The subject of experiment [6] is FkitT (DNA, G4) AGGGAGGGCGCTGGGAGGAGGG
As to the kind of experiment: FRET melting (fluorescence). The conditions noted are these: K+ 10 mM, Na+ 10 mM, Li+ 90 mM; cacodylate, pH 7.0; ligand:DNA ratio 5; DNA 0.2 µM (Figure S6; Table 2 prints 0.2 mM); error ±0.5 °C.

The structures appear in SMILES notation.

Consider `COc1ccc2cc3[n+](cc2c1OP(=O)(O)O)CCc1cc2c(cc1-3)OCO2`, for which the Kb was 5.0 ± 0.6 × 10^5 M^-1 in experiment [1], 6.9 ± 0.2 × 10^5 M^-1 in experiment [2], 6.7 ± 0.2 × 10^5 M^-1 in experiment [3] and 5.9 ± 0.4 × 10^5 M^-1 in experiment [4]. The “∆Tm” value in experiment [5] was 2.2 °C; in experiment [6], 1.0 °C.
